# Laboratory results taken from US8673904B2, “Epoxide inhibitors of cysteine proteases” (The Board of Trustees of the Leland Stanford Junior …, priority 2006, dated 2014).
# Test system: cathepsin targets
# Assay: Cathepsin targets of the compounds (Table 4)
# Format: biochemical, rat
# Conditions: cathepsin target(s) inhibited; General = all cathepsins
# Protocol: Also included in the table for comparison are known compounds JPMOEt and JPMOH (also known as JPM-565). See Meara and Rich, J. Med. Chem. 39:3357-3366, 1996; Bogyo et al, Chem. Biol. 7:27-38, 2000; and Joyce et al., Cancer Cell 5:443-453, 2004. The table also lists cathepsin targets and measured IC50 values for specific compounds. To determine these values, 1 mg/ml of rat liver lysate was incubated with a series of concentrations of the inhibitor for 20 minutes. Then, 1 ul of a radiolabled general cathepsin probe, DCG-04, was added to the solutions and incubated for 1 hour. After fixing and drying the gel, the residual enzyme activity was measured using ImageJ software. The measurements were then transferred to GraphPad Prism 4 to calculate the IC50 values.
row,Structure (SMILES),Target
1,CC(=O)NCCNC(=O)[C@H]1O[C@@H]1C(=O)N[C@@H](Cc1ccc(C)cc1)C(=O)N[C@@H](Cc1ccc(O)cc1)C(N)=O [Compound 1],Cat B
2,Cc1ccc(C[C@H](NC(=O)C2OC2C(=O)NCc2ccccc2)C(=O)N[C@@H](Cc2ccc(O)cc2)C(N)=O)cc1 (stereo partly drawn) [Compound 2],Cat B
3,Cc1ccc(C[C@H](NC(=O)[C@H]2O[C@@H]2C(=O)NCCc2ccccn2)C(=O)N[C@@H](Cc2ccc(O)cc2)C(N)=O)cc1 [Compound 3],Cat B
4,Cc1ccc(C[C@H](NC(=O)C2OC2C(=O)NCCN2CCOCC2)C(=O)N[C@@H](Cc2ccc(O)cc2)C(N)=O)cc1 (stereo partly drawn) [Compound 4],Cat B
5,Cc1ccc(C[C@H](NC(=O)C2OC2C(=O)NCCc2ccc(-c3ccccc3)cc2)C(=O)N[C@@H](Cc2ccc(O)cc2)C(N)=O)cc1 (stereo partly drawn) [Compound 5],Cat B
6,Cc1ccc(C[C@H](NC(=O)[C@H]2O[C@@H]2C(=O)NCCc2ccc(O)cc2)C(=O)N[C@@H](Cc2ccc(O)cc2)C(N)=O)cc1 [Compound 6],Cat B
7,Cc1ccc(C[C@H](NC(=O)[C@H]2OC2C(=O)NCCN2CCCC2)C(=O)N[C@@H](Cc2ccc(O)cc2)C(N)=O)cc1 (stereo partly drawn) [Compound 7],Cat B
8,Cc1ccc(C[C@H](NC(=O)[C@H]2O[C@@H]2C(=O)NCc2cccc3ccccc23)C(=O)N[C@@H](Cc2ccc(O)cc2)C(N)=O)cc1 [Compound 8],Cat B
9,Cc1ccc(C[C@H](NC(=O)C2OC2C(=O)NCCN2CCCCC2)C(=O)N[C@@H](Cc2ccc(O)cc2)C(N)=O)cc1 (stereo partly drawn) [Compound 9],Cat B
10,Cc1ccc(C[C@H](NC(=O)C2OC2C(=O)N[C@H](C)c2ccccc2)C(=O)N[C@@H](Cc2ccc(O)cc2)C(N)=O)cc1 (stereo partly drawn) [Compound 10],Cat B
11,Cc1ccc(C[C@H](NC(=O)C2O[C@@H]2C(=O)NN2CCN(C)CC2)C(=O)N[C@@H](Cc2ccc(O)cc2)C(N)=O)cc1 (stereo partly drawn) [Compound 11],Cat B
12,Cc1ccc(C[C@H](NC(=O)C2OC2C(=O)NCCCO)C(=O)N[C@@H](Cc2ccc(O)cc2)C(N)=O)cc1 (stereo partly drawn) [Compound 12],Cat B
13,Cc1ccc(C[C@H](NC(=O)C2OC2C(=O)NCCCCCCO)C(=O)N[C@@H](Cc2ccc(O)cc2)C(N)=O)cc1 (stereo partly drawn) [Compound 13],Cat B
14,CCNC(=O)C1OC1C(=O)N[C@@H](Cc1ccc(C)cc1)C(=O)N[C@@H](Cc1ccc(O)cc1)C(N)=O (stereo partly drawn) [Compound 14],Cat B
15,Cc1ccc(C[C@H](NC(=O)C2OC2C(=O)NCC(N)=O)C(=O)N[C@@H](Cc2ccc(O)cc2)C(N)=O)cc1 (stereo partly drawn) [Compound 15],Cat B
16,Cc1ccc(C[C@H](NC(=O)C2OC2C(=O)NCC(C)C)C(=O)N[C@@H](Cc2ccc(O)cc2)C(N)=O)cc1 (stereo partly drawn) [Compound 17],Cat B
17,CCOC(=O)C1OC1C(=O)N[C@@H](Cc1ccc(C)cc1)C(=O)N[C@@H](Cc1ccc(O)cc1)C(N)=O (stereo partly drawn) [Compound 18],Cat B
18,Cc1ccc(C[C@H](NC(=O)[C@H]2OC2C(=O)O)C(=O)N[C@@H](Cc2ccc(O)cc2)C(N)=O)cc1 (stereo partly drawn) [Compound 19],Cat B
19,CC(=O)NCCNC(=O)C1O[C@@H]1C(=O)N[C@@H](CC(C)C)C(=O)N[C@@H](Cc1ccc(O)cc1)C(N)=O (stereo partly drawn) [Compound 20],Cat B
20,CC(C)C[C@H](NC(=O)[C@H]1OC1C(=O)NCc1ccccc1)C(=O)N[C@@H](Cc1ccc(O)cc1)C(N)=O (stereo partly drawn) [Compound 21],Cat B

row,Structure (SMILES),Target
1,CC(C)C[C@H](NC(=O)C1OC1C(=O)NCCc1ccccn1)C(=O)N[C@@H](Cc1ccc(O)cc1)C(N)=O (stereo partly drawn) [Compound 22],Cat B
2,CC(C)C[C@H](NC(=O)C1OC1C(=O)NCCN1CCOCC1)C(=O)N[C@@H](Cc1ccc(O)cc1)C(N)=O (stereo partly drawn) [Compound 23],Cat B
3,CC(C)C[C@H](NC(=O)C1OC1C(=O)NCCc1ccc(-c2ccccc2)cc1)C(=O)N[C@@H](Cc1ccc(O)cc1)C(N)=O (stereo partly drawn) [Compound 24],Cat B
4,CC(C)C[C@H](NC(=O)[C@H]1OC1C(=O)NCCN1CCCC1)C(=O)N[C@@H](Cc1ccc(O)cc1)C(N)=O (stereo partly drawn) [Compound 26],Cat B
5,CC(C)C[C@H](NC(=O)[C@H]1O[C@@H]1C(=O)NCc1cccc2ccccc12)C(=O)N[C@@H](Cc1ccc(O)cc1)C(N)=O [Compound 27],Cat B
6,CC(C)C[C@H](NC(=O)[C@H]1OC1C(=O)NCCN1CCCCC1)C(=O)N[C@@H](Cc1ccc(O)cc1)C(N)=O (stereo partly drawn) [Compound 28],Cat B
7,CC(C)C[C@H](NC(=O)[C@H]1OC1C(=O)N[C@H](C)c1ccccc1)C(=O)N[C@@H](Cc1ccc(O)cc1)C(N)=O (stereo partly drawn) [Compound 29],Cat B
8,CC(C)C[C@H](NC(=O)C1OC1C(=O)NN1CCN(C)CC1)C(=O)N[C@@H](Cc1ccc(O)cc1)C(N)=O (stereo partly drawn) [Compound 30],Cat B
9,CC(C)C[C@H](NC(=O)C1OC1C(=O)NCCCCCCO)C(=O)N[C@@H](Cc1ccc(O)cc1)C(N)=O (stereo partly drawn) [Compound 32],Cat B
10,CCNC(=O)C1OC1C(=O)N[C@@H](CC(C)C)C(=O)N[C@@H](Cc1ccc(O)cc1)C(N)=O (stereo partly drawn) [Compound 33],Cat B
11,CC(C)C[C@H](NC(=O)C1OC1C(=O)NCC(N)=O)C(=O)N[C@@H](Cc1ccc(O)cc1)C(N)=O (stereo partly drawn) [Compound 34],Cat B
12,CC(C)C[C@H](NC(=O)[C@H]1OC1C(=O)NCC(=O)O)C(=O)N[C@@H](Cc1ccc(O)cc1)C(N)=O (stereo partly drawn) [Compound 35],Cat B
13,CC(C)CNC(=O)C1OC1C(=O)N[C@@H](CC(C)C)C(=O)N[C@@H](Cc1ccc(O)cc1)C(N)=O (stereo partly drawn) [Compound 36],Cat B
14,CC(C)C[C@H](NC(=O)C1OC1C(=O)N[C@@H](C)c1ccccc1)C(=O)N[C@@H](Cc1ccc(O)cc1)C(N)=O (stereo partly drawn) [Compound 37],Cat B
15,CC(C)C[C@H](NC(=O)C1OC1C(=O)NCCO)C(=O)N[C@@H](Cc1ccc(O)cc1)C(N)=O (stereo partly drawn) [Compound 38],Cat B
16,CC(=O)NCCNC(=O)C1OC1C(=O)N[C@@H](CC(C)C)C(=O)N[C@@H](Cc1ccc(O)cc1)C(N)=O (stereo partly drawn) [Compound 41],Cat B
17,CC(C)C[C@H](NC(=O)[C@@H]1O[C@H]1C(=O)NCc1ccccc1)C(=O)N[C@@H](Cc1ccc(O)cc1)C(N)=O [Compound 42],Cat B
18,CC(C)C[C@H](NC(=O)C1O[C@H]1C(=O)NCCc1ccccn1)C(=O)N[C@@H](Cc1ccc(O)cc1)C(N)=O (stereo partly drawn) [Compound 43],Cat B
19,CC(C)C[C@H](NC(=O)C1OC1C(=O)NCCc1ccc(-c2ccccc2)cc1)C(=O)N[C@@H](Cc1ccc(O)cc1)C(N)=O (stereo partly drawn) [Compound 45],Cat B
20,CC(C)C[C@H](NC(=O)[C@@H]1O[C@H]1C(=O)NCc1cccc2ccccc12)C(=O)N[C@@H](Cc1ccc(O)cc1)C(N)=O [Compound 48],Cat B

row,Structure (SMILES),Target
1,CC(C)C[C@H](NC(=O)C1O[C@H]1C(=O)NCCN1CCCCC1)C(=O)N[C@@H](Cc1ccc(O)cc1)C(N)=O (stereo partly drawn) [Compound 49],Cat B
2,CC(C)C[C@H](NC(=O)C1OC1C(=O)N[C@H](C)c1ccccc1)C(=O)N[C@@H](Cc1ccc(O)cc1)C(N)=O (stereo partly drawn) [Compound 50],Cat B
3,CC(C)C[C@H](NC(=O)C1O[C@H]1C(=O)NCCCCCCO)C(=O)N[C@@H](Cc1ccc(O)cc1)C(N)=O (stereo partly drawn) [Compound 53],Cat B
4,CC(C)CNC(=O)C1OC1C(=O)N[C@@H](CC(C)C)C(=O)N[C@@H](Cc1ccc(O)cc1)C(N)=O (stereo partly drawn) [Compound 57],Cat B
5,CC(C)C[C@H](NC(=O)C1OC1C(=O)N[C@@H](C)c1ccccc1)C(=O)N[C@@H](Cc1ccc(O)cc1)C(N)=O (stereo partly drawn) [Compound 58],Cat B
6,CCOC(=O)C1OC1C(=O)N[C@@H](CC(C)C)C(=O)N[C@@H](Cc1ccc(O)cc1)C(N)=O (stereo partly drawn) [Compound 59],Cat B
7,CC(C)C[C@H](NC(=O)[C@H]1OC1C(=O)NCCc1ccc(O)cc1)C(=O)NCCN1CCCCC1 (stereo partly drawn) [Compound 67],Cat B
8,CCOC(=O)C1OC1C(=O)N(CC(=O)N[C@@H](Cc1ccc(O)cc1)C(N)=O)CC(C)C (stereo partly drawn) [Compound 103],Cat B
9,CCC[C@H](NC(=O)[C@H]1O[C@@H]1C(=O)OCC)C(=O)NCc1cccc2ccccc12 [Compound 105],General
10,CCC[C@H](NC(=O)C1O[C@@H]1C(=O)NCCc1ccc(-c2ccccc2)cc1)C(=O)NCCc1ccccn1 (stereo partly drawn) [Compound 106],Cat B
11,CCC[C@H](NC(=O)[C@H]1O[C@@H]1C(=O)NCCc1ccc(O)cc1)C(=O)NCc1cccc2ccccc12 [Compound 111],Cat Z
12,CCC[C@H](NC(=O)[C@H]1O[C@@H]1C(=O)O)C(=O)NCc1cccc2ccccc12 [Compound 114],General
13,CCC[C@H](NC(=O)[C@@H]1O[C@H]1C(=O)O)C(=O)NCc1cccc2ccccc12 [Compound 115],Cat Z
14,CCOC(=O)C1OC1C(=O)N[C@@H](Cc1ccc(C)cc1)C(=O)NCc1cccc2ccccc12 (stereo partly drawn) [Compound 119],Cat Z
15,CCC[C@H](NC(=O)C1O[C@@H]1C(=O)NCCc1ccc(O)cc1)C(=O)NCCc1ccccn1 (stereo partly drawn) [Compound 120],Cat B
16,Cc1ccc(C[C@H](NC(=O)C2O[C@@H]2C(=O)NCC(=O)O)C(=O)NCc2cccc3ccccc23)cc1 (stereo partly drawn) [Compound 121],Cat Z
17,CCOC(=O)[C@H]1O[C@@H]1C(=O)N[C@@H](Cc1ccc(C)cc1)C(=O)NCc1cccc2ccccc12 [Compound 122],Cat Z
18,CCC[C@H](NC(=O)C1O[C@@H]1C(=O)OCC)C(=O)NCCc1ccccn1 (stereo partly drawn) [Compound 123],General
19,CCC[C@H](NC(=O)[C@@H]1OC1C(=O)OCC)C(=O)NCCc1ccccn1 (stereo partly drawn) [Compound 124],General
20,CCOC(=O)C1O[C@H]1C(=O)N[C@@H](Cc1ccc(C)cc1)C(=O)NCCc1ccccn1 (stereo partly drawn) [Compound 126],General
